Experimental data taken from patent EP0313846B1, “Method for controlling chronic respiratory disease, and necrotic enteritis in avian species” (AMERICAN CYANAMID COMPANY, priority 1987, dated 1989).
Converted amounts (≈) assume the structure as drawn. Where two headings read alike, the source gives them in different places.

Tests used:
[1] = test system: Mycoplasma gallisepticum "R"; assay: Minimum inhibitory concentration assay for Mycoplasma gallisepticum (microdilution, Table VI); assay type: cell-based; conditions: Mycoplasmoides gallisepticum
Description: • 1. […] Both cultures are incubated at 37°C. […] Appropriate solvent controls are also included. • 4.

[2] = test system: Mycoplasma gallisepticum; assay: Treatment of Mycoplasma gallisepticum caused chronic respiratory disease in poultry; assay type: in vivo; conditions: for Final Mean Body Weight (g) of Survivors / Overall % Mortality / Overall Feed-to-Gain: 7 days pre- and 7 days postchallenge; for Final Mean Body Weight (g) of Survivors / Overall % Mortality / Overall Feed-to-Gain / Mean Air Sac Lesion Scores: M. gallisepticum challenged birds; for Mean Air Sac Lesion Scores: score 0-3
Description: This study is conducted to evaluate the efficacy of antibiotic LL-E19020α against Mycoplasma gallisepticum caused chronic respiratory disease in poultry. The antibiotic is fed continuously at 10 and 50 g/ton for 7 days pre- and 7 days postchallenge. Birds similarly fed a diet containing 100 g/ton chlortetracycline serve as a positive control group. Infected and noninfected, nonmedicated control groups are also included. After 7 days on respective treatment diets, birds are challenged with M. gallisepticum (MG) into the right and left post-thoracic air sacs. The air sacs are cultured for the presence of Mycoplasma from all birds dying postchallenge. The air sacs of all birds are scored based on gross lesions upon necropsy at death or at study end. Survivors at study end are bled prior to necropsy for Mycoplasma gallisepticum serology testing. Body weight and feed intake measurements are made at specified intervals during the study.

[3] = test system: Streptococcus faecalis; assay: Minimum inhibitory concentration by agar dilution (Table V); assay type: cell-based; conditions: Streptococcus faecalis (1 strain tested)
[4] = test system: Treponema hyodysenteriae; assay: Minimum inhibitory concentration by microdilution (Table VI); assay type: cell-based
[5] = test system: Staphylococcus aureus; assay: Minimum inhibitory concentration by agar dilution (Table V); assay type: cell-based; conditions: Staphylococcus aureus (7 strains tested)
[6] = test system: Streptococcus pyogenes; assay: as above; assay type: cell-based; conditions: Streptococcus pyogenes (2 strains tested)
[7] = test system: Bordetella bronchiseptica; assay: as above; assay type: cell-based; conditions: Bordetella bronchiseptica (4 strains tested)
[8] = test system: Clostridium perfringens type C; assay type: in vivo, broiler chicks; conditions: infected chicks, treatment mean; for Lesion Scores: intestinal lesion score 0-4, day 19
[9] = test system: Clostridium perfringens ATCC 13124; assay type: cell-based; conditions: 18 hours incubation
[10] = test system: Staphylococcus aureus Smith; assay: In vivo antibacterial activity in infected mice (Table III); design: species or system female CD-1 mice; conditions: S. aureus Smith, 30 minutes before infection
[11] = test system: Clostridium difficile ATCC 17858; assay: In vitro antibacterial activity, standard agar dilution method (Table II); assay type: cell-based; conditions: 18 hours incubation
Description: (§1) The in vitro antibacterial activity of LL-E19020α and β was determined against a spectrum of gram-positive and gram-negative bacteria by a standard agar dilution method. Mueller-Hinton agar containing 5% sheep blood and two-fold decreasing concentrations of either LL-E19020α or β were poured into petri dishes. The agar surfaces were inoculated with 1 to 5x10⁴ colony forming units of bacteria by means of the Steers replicating device. The lowest concentration of antibiotic that inhibited growth of a bacterial strain after 18 hours incubation was recorded as the minimal inhibitory concentration for that strain.

[12] = test system: Streptococcus sp. (β-hemolytic); assay: as above; assay type: cell-based; conditions: 18 hours incubation
Description: as §1

[13] = test system: Peptococcus magnus; assay: as above; assay type: cell-based; conditions: 18 hours incubation
Description: as §1

[14] = test system: Streptococcus pneumoniae; assay: as above; assay type: cell-based; conditions: 18 hours incubation
Description: as §1

[15] = test system: Pasteurella haemolytica; assay: Minimum inhibitory concentration by agar dilution (Table V); assay type: cell-based; conditions: Pasteurella haemolytica (3 strains tested)
[16] = test system: Pasteurella haemolytica 30660; assay: Pasteurella disk test (primary in vitro disk diffusion test); assay type: cell-based; conditions: disks soaked in 2.5 mg/ml solution of test compound, zones of inhibition
Description: (§2) Zones of inhibition are recorded.

[17] = test system: Pasteurella multocida 31081B; assay: as above; assay type: cell-based; conditions: disks soaked in 2.5 mg/ml solution of test compound, zones of inhibition
Description: as §2

[18] = test system: Salmonella choleraesuis; assay: Minimum inhibitory concentration by agar dilution (Table V); assay type: cell-based; conditions: Salmonella choleraesuis (2 strains tested)
[19] = test system: Streptococcus uberis; assay: as above; assay type: cell-based; conditions: Streptococcus uberis (1 strain tested)
[20] = test system: Treponema hyodysenteriae; assay: T. hyodysenteriae disk test (primary in vitro disk diffusion test); assay type: cell-based; conditions: disks soaked in 2.5 mg/ml solution, zones of inhibited hemolysis
[21] = test system: Streptococcus pyogenes C203; assay: In vivo antibacterial activity in infected mice (Table III); design: species or system female CD-1 mice; conditions: S. pyogenes C203, mice, 30 minutes before infection
[22] = test system: Streptococcus agalactiae; assay: Minimum inhibitory concentration by agar dilution (Table V); assay type: cell-based; conditions: Streptococcus agalactiae (4 strains tested)
[23] = test system: Escherichia coli; assay: as above; assay type: cell-based; conditions: Escherichia coli (2 strains tested)
[24] = 100 g/ton in feed (positive control)
[25] = Treponema hyodysenteriae B78 (ATCC 27164)
[26] = Treponema hyodysenteriae B204 (ATCC 31212)
[27] = single subcutaneous dose 4 mg/kg
[28] = single subcutaneous dose 16 mg/kg
[29] = single subcutaneous dose 64 mg/kg
[30] = 50 grams per ton of feed, Mycoplasma gallisepticum infected chicks

CN(C)[C@@H]1C(O)=C(C(N)=O)C(=O)[C@@]2(O)C(O)=C3C(=O)c4c(O)ccc(Cl)c4[C@@](C)(O)[C@H]3C[C@@H]12 [CTC, Chlortetracycline, reference compound]
MIC [1]: 0.5 µg/mL (≈ 1.04 µM)
Final Mean Body Weight (g) of Survivors [2, 24]: 398 g
Overall % Mortality [2, 24]: 25.0%
Overall Feed-to-Gain [2, 24]: 1.83
Mean Air Sac Lesion Scores [2, 24]: 1.88

C/C=C\C=C\[C@@H]1O[C@](O)([C@H](CO[C@H]2C[C@@H](OC)[C@@H](O[C@@H]3C[C@@H](OC)[C@@H](O[C@H]4C[C@H](OC)[C@H](O)[C@H](C)O4)[C@H](C)O3)[C@@H](C)O2)C(=O)NC/C=C/C=C(\C)[C@@H](OC)[C@H](C)[C@H]2C[C@H](O)[C@H](/C=C/C=C/C=C/C(=O)O)O2)[C@H](OC(=O)Cc2ccccc2)[C@H](O)C1(C)C [LL-E19020α]
MIC [3]: 8 µg/mL (≈ 6.52 µM)
MIC [4, 25]: 1 µg/mL (≈ 0.815 µM)
MIC [4, 26]: 1 µg/mL (≈ 0.815 µM)
MIC [5]: ≧256 µg/ml
MIC [6]: 2 µg/mL (≈ 1.63 µM)
MIC [7]: >256 µg/mL
% Mortality ([8]; 5 ppm): 2.5%
Feed/Gain ([8]; 5 ppm): 1.97
Final Weight ([8]; 5 ppm): 639.2
Lesion Scores ([8]; 5 ppm): 0.35
% Mortality ([8]; 50 ppm): 2.5%
Feed/Gain ([8]; 50 ppm): 1.80
Final Weight ([8]; 50 ppm): 699.4
Lesion Scores ([8]; 50 ppm): 0.38
Minimal Inhibitory Concentration [9]: 16 µg/mL
Survival Ratios 7 Days After Infection [10, 27]: 2/5
Survival Ratios 7 Days After Infection [10, 28]: 3/5
Survival Ratios 7 Days After Infection [10, 29]: 3/5
Survival Ratios 7 Days After Infection ([10]; single subcutaneous dose 256 mg/kg): 3/5
Minimal Inhibitory Concentration [11]: 4 µg/mL
Minimal Inhibitory Concentration ([12]; Streptococcus sp. (β-hemolytic) C203): 0.5 µg/mL
Minimal Inhibitory Concentration ([12]; Streptococcus sp. (β-hemolytic) VGH-84-60): 0.25 µg/mL
Minimal Inhibitory Concentration ([12]; Streptococcus sp. (β-hemolytic) VGH-84-61): 1 µg/mL
Minimal Inhibitory Concentration ([12]; Streptococcus sp. (β-hemolytic) VGH-84-62): 1 µg/mL
Minimal Inhibitory Concentration ([12]; Streptococcus sp. (β-hemolytic) VGH-84-63): 0.12 µg/mL
Minimal Inhibitory Concentration ([12]; Streptococcus sp. (β-hemolytic) VGH-84-64): 0.12 µg/mL
Minimal Inhibitory Concentration ([13]; Peptococcus magnus ATCC 14956): 0.12 µg/mL
Minimal Inhibitory Concentration ([13]; Peptococcus magnus ATCC 29328): 0.12 µg/mL
Minimal Inhibitory Concentration ([14]; Streptococcus pneumoniae SVI): 1 µg/mL
Minimal Inhibitory Concentration ([14]; Streptococcus pneumoniae VGH-84-56): 1 µg/mL
Minimal Inhibitory Concentration ([14]; Streptococcus pneumoniae VGH-84-57): 2 µg/mL
Minimal Inhibitory Concentration ([14]; Streptococcus pneumoniae VGH-84-58): 0.25 µg/mL
Minimal Inhibitory Concentration ([14]; Streptococcus pneumoniae VGH-84-59): 0.25 µg/mL
MIC [15]: 16 µg/mL (≈ 13 µM)
ZONE SIZE [16]: 13 mm
ZONE SIZE [17]: 15 mm
Final Mean Body Weight (g) of Survivors ([2]; 10 g/ton in feed): 336 g
Overall % Mortality ([2]; 10 g/ton in feed): 41.3%
Overall Feed-to-Gain ([2]; 10 g/ton in feed): 1.88
Mean Air Sac Lesion Scores ([2]; 10 g/ton in feed): 2.04
Final Mean Body Weight (g) of Survivors ([2]; 50 g/ton in feed): 349 g
Overall % Mortality ([2]; 50 g/ton in feed): 36.3%
Overall Feed-to-Gain ([2]; 50 g/ton in feed): 1.84
Mean Air Sac Lesion Scores ([2]; 50 g/ton in feed): 2.11
feed to gain ratios compared with infected nonmedicated chicks [2, 30]: better feed to gain ratios
mortality compared with infected nonmedicated chicks [2, 30]: less mortality
weight gain compared with infected nonmedicated chicks [2, 30]: better weight gain
MIC [18]: >256 µg/mL
MIC [19]: 8 µg/mL (≈ 6.52 µM)
ZONE SIZE [20, 25]: 0 mm
ZONE SIZE [20, 26]: 15 mm
Survival Ratios 7 Days After Infection [21, 27]: 2/5
Survival Ratios 7 Days After Infection ([21]; single subcutaneous dose 8 mg/kg): 4/5
Survival Ratios 7 Days After Infection [21, 28]: 5/5
Survival Ratios 7 Days After Infection ([21]; single subcutaneous dose 32 mg/kg): 5/5
Survival Ratios 7 Days After Infection [21, 29]: 5/5
MIC [22]: 2 to 8 µg/mL
MIC [23]: ≧256 µg/ml
